In patent US6620953B1, “Method for producing monoaryloxy-ansa-metallocenes” (Bassell Polyolefine GmbH, priority 1998, dated 2003):

Key:
[1] = Solubility comparison in toluene at room temperature; format: physicochemical; conditions: 50 mg in toluene at room temperature
[2] = Propylene polymerization with supported metallocene/MAO/SiO2 catalyst; conditions: metallocene 0.047 mmol in 30% MAO/toluene (Al/Zr=215) on SiO2; liquid propylene, 60° C., one hour
Procedure: (§1) 35.1 mg (0.047 mmol) of (3) were stirred in 2.1 ml of 30% strength MAO solution in toluene (Al/Zr=215) for 60 minutes at room temperature. 2 g of SiO2 (Grace XPO2107, pretreated at 140° C., 10 mbar, 10 hours) were subsequently added and the mixture was stirred for another 10 minutes. The solvent was removed in an oil pump vacuum.
A dry 2 l reactor was flushed firstly with nitrogen and subsequently propylene and charged with 1.5 l of liquid propylene. 2 ml of TEA (20% strength in Varsol) were added and the mixture was stirred for 15 minutes. The catalyst system prepared above (0.886 g) was then resuspended in 20 ml of heptane and injected into reactor and rinsed in using 15 ml of heptane. The reaction mixture was heated to the polymerization temperature of 60° C. and polymerization was carried out for one hour. The polymerization was stopped by venting the remaining propylene. The polymer was dried in a vacuum drying oven. This gave 470 g of polypropylene powder. […] The catalyst activity was 0.53 kg of PP/g of catalyst x h.
as §1, with “27.1” for “35.1”, “dimethylsilanediylbis(2-methyl-4,5-benzoindenyl)zirconium dichloride” for “(3)”, “The solvent was removed in an oil pump vacuum.” left out

solubility [1]	Structure (SMILES)	catalyst activity [2]
about 0.36 mmol/l	CC1=Cc2c(ccc3ccccc23)[C]12[Si](C)(C)[C]1(C(C)=Cc3c1ccc1ccccc31)[Zr]2([Cl])[Cl] (stereo not drawn) [Rac-Dimethylsilanediylbis(2-methyl-4,5-benzoindenyl)zirconium Dichloride]	0.46 kg of PP/g of catalyst x h
> 13 mM	CC1=Cc2c(ccc3ccccc23)[C]12[Si](C)(C)[C]1(C(C)=Cc3c1ccc1ccccc31)[Zr]2([Cl])[O]c1ccc(C(C)(C)C)cc1C(C)(C)C (stereo not drawn) [compound 3, Pseudo-rac-Dimethylsilanediylbis(2-methyl-4,5-benzo-indenyl)zirconium Monochloride Mono(2,4-di-tert-butylphenoxide)]	0.53 kg of PP/g of catalyst x h
> 15 mM	CC1=Cc2ccccc2[C]12[Si](C)(C)[C]1(C(C)=Cc3ccccc31)[Zr]2([Cl])[O]c1ccc(C(C)(C)C)cc1C(C)(C)C (stereo not drawn) [compound 4, Pseudo-rac-Dimethylsilanediylbis(2-methylindenyl)-zirconium Monochloride Mono(2,4-di-tert-butylphenoxide)]	–

Structure (SMILES)	solubility [1]	catalyst activity [2]
Cc1cc2ccccc2[c-]1[Si](C)(C)[c-]1c(C)cc2ccccc21.[Cl-].[Cl-].[Zr+4] (racemic) [Rac-Dimethylsilanediylbis(2-methylindenyl)-zirconium Dichloride]	about 2.1 mmol/l	–
